Our source for the IC50 values is patent US20120165310A1, “ETHER DERIVATIVES OF BICYCLIC HETEROARYLS” (NOVARTIS AG, priority 2009, published 2012).

What is called IC50 is the concentration that gives 50% inhibition.

Holding throughout (assay): Kinase activity test, parent compound vs phenol metabolite X
What all share (format): biochemical

The target in experiment [1] is InsR (Homo sapiens, UniProt P06213).
For experiment [2], the target named is T1, EphB4 (Homo sapiens, UniProt P54760).
T1 sequence (P54760 16-987): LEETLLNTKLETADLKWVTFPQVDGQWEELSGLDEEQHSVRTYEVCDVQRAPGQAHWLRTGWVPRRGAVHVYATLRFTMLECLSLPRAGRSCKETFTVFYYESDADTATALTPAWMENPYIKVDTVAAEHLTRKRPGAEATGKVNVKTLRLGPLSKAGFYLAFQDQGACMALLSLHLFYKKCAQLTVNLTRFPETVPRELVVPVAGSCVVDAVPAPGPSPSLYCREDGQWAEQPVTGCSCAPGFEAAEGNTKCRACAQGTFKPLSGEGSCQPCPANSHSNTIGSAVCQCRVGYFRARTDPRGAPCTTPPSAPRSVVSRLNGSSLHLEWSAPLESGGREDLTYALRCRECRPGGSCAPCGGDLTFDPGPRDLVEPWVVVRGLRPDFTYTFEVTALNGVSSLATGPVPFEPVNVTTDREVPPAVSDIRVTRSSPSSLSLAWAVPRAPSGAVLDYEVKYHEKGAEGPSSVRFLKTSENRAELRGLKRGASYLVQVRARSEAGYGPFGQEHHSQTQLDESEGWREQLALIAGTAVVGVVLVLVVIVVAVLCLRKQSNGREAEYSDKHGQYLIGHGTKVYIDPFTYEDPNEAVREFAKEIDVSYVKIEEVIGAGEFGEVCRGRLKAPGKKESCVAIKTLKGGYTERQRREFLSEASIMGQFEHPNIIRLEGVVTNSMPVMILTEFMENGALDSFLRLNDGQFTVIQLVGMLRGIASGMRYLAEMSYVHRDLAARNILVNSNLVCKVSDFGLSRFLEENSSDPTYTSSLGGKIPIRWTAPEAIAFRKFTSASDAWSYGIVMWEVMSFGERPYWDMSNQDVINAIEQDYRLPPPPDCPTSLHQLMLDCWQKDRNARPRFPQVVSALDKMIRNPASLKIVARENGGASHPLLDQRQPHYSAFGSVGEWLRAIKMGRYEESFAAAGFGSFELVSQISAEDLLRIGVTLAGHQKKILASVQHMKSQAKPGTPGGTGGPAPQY
The text has this: (§1) In this tests, the parent compound, ex.102 of […] is compared with the corresponding phenol metabolite.

The target in experiment [3] is C-Abl (Homo sapiens, UniProt P00519).
C-Abl, sequence (P00519 whole entry): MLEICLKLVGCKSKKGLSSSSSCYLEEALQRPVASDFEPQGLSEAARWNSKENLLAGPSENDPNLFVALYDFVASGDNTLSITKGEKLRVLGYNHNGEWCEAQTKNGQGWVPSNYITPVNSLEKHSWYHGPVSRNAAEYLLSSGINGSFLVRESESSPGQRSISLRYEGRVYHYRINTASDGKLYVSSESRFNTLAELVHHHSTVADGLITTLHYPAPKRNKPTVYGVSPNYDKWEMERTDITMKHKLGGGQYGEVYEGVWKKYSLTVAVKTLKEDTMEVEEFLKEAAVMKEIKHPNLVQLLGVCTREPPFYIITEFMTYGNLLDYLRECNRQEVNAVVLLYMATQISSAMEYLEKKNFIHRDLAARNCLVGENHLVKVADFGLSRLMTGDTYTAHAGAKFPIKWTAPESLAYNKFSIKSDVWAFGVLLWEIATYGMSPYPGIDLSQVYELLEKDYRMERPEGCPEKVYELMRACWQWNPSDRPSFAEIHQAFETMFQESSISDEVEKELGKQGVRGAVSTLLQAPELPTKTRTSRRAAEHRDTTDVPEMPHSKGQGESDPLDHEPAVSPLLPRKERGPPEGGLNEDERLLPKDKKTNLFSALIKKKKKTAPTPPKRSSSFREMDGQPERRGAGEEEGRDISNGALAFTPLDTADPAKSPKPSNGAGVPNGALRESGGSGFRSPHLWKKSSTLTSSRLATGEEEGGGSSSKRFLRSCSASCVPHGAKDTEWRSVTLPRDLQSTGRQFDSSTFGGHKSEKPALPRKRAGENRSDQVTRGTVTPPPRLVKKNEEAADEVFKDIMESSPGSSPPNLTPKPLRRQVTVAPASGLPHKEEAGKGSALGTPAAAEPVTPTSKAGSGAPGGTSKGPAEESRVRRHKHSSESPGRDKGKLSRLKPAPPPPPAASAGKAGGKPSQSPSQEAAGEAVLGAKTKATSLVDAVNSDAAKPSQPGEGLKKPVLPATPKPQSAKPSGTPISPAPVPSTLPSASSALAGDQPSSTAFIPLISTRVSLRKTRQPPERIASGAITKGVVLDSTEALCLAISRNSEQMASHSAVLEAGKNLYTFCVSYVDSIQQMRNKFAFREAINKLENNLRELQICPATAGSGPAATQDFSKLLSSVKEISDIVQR
Text: as §1

Experiment [4] deals with c-src (Homo sapiens, UniProt P12931).
c-src, sequence (P12931 whole entry, species assumed): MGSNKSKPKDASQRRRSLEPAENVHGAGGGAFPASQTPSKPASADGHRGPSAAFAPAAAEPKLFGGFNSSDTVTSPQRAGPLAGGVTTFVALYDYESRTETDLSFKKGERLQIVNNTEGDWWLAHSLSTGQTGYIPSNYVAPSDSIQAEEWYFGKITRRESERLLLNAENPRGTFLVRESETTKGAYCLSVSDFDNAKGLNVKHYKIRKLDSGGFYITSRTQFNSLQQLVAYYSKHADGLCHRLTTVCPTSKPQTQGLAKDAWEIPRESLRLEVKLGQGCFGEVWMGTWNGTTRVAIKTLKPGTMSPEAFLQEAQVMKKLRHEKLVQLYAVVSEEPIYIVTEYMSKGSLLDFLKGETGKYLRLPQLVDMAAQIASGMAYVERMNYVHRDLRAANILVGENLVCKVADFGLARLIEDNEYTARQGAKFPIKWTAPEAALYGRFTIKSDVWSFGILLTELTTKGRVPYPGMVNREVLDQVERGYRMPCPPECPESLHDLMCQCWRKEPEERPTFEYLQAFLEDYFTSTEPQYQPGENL
Text: as §1

For experiment [5], the target named is RET (Homo sapiens, UniProt P07949).
RET, sequence (P07949 29-1114, species assumed): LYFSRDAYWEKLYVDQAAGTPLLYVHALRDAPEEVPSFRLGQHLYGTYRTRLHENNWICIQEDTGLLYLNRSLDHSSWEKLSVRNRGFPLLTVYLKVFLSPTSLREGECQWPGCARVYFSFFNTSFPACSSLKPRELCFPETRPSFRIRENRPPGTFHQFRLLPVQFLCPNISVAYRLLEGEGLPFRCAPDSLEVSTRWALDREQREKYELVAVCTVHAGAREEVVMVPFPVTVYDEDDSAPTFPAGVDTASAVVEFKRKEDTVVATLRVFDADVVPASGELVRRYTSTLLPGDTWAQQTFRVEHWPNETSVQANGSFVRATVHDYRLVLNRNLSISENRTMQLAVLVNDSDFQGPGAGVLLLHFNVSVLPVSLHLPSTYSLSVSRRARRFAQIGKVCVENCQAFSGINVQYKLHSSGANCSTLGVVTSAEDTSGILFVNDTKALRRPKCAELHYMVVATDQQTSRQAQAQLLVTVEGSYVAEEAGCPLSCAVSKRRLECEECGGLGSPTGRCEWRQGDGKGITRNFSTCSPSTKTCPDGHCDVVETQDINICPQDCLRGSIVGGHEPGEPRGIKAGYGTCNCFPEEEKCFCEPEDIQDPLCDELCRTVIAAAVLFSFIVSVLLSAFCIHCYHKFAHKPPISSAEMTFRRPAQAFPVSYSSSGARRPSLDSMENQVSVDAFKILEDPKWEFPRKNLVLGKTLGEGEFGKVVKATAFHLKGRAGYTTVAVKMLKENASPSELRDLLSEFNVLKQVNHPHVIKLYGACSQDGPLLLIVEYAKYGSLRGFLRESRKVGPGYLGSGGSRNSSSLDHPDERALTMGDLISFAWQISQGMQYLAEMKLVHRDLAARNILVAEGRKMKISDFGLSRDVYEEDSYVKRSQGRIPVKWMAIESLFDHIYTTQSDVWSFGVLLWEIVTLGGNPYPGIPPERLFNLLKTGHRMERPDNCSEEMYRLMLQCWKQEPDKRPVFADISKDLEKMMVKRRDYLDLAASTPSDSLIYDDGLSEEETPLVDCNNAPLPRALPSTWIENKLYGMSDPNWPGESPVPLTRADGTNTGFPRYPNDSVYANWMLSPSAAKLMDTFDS
Text: as §1

InsR, sequence (P06213 28-1382, species assumed): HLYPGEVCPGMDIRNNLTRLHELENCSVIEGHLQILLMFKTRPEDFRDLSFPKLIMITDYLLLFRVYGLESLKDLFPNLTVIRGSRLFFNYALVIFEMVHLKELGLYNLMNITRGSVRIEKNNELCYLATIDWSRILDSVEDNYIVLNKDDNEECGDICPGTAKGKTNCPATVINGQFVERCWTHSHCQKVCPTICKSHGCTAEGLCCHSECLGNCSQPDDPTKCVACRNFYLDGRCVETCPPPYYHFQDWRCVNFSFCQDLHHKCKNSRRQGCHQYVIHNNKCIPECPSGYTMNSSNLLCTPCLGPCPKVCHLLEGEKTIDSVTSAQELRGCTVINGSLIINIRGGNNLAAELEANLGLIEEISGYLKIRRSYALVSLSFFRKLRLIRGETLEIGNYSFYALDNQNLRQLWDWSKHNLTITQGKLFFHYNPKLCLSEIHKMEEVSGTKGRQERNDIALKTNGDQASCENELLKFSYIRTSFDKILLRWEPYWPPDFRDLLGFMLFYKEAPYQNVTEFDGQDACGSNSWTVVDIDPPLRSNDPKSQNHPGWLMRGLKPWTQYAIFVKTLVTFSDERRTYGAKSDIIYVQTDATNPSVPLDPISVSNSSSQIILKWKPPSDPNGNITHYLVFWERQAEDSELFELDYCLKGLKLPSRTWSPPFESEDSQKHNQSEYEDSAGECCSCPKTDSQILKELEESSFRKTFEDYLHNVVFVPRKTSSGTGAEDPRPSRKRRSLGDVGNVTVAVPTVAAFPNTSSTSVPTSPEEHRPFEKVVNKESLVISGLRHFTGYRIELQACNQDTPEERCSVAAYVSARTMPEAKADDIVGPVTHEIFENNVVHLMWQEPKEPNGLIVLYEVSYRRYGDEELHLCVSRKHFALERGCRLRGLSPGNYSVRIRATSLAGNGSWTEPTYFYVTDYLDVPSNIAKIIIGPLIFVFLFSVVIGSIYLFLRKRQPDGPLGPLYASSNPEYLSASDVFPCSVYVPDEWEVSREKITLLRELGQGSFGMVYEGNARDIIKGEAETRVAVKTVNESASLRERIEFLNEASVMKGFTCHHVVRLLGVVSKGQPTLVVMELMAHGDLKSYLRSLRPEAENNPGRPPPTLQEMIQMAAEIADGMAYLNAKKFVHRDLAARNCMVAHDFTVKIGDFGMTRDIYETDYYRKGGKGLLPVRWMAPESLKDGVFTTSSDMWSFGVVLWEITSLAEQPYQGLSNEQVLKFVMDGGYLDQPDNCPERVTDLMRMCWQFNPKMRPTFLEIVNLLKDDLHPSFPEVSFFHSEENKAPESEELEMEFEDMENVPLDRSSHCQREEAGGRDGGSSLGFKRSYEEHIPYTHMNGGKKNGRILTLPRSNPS

Consider `Nc1ncnc2c1c(-c1cccc(O)c1)cn2[C@H]1C[C@@H](CN2CCC2)C1` [Phenol metabolite X, cis-3-[4-amino-7-(3-azetidin-1-ylmethyl-cyclobutyl)-7H-pyrrolo[2,3-d]pyrimidin-5-yl]-phenol], for which the IC50 in experiment [1] came to 3800 nM; in experiment [2], 9 nM; in experiment [3], 47 nM; in experiment [4], 4 nM; in experiment [5], 8 nM.
